Measurements published in patent US5071841A, “Sulfur-containing heterocyclic compounds useful for the treatment of osteoporosis, and their production” (priority 1988, dated 1991).
Read-outs that look alike come from different tables or passages of the source.

What was measured:
[1] = system: right and left humeri (radii and ulnae) of rat fetus; assay: Bone resorption inhibition: 45Ca release from fetal rat bone in culture (method of Raisz); type: cell-based, Sprague-Dawley rat; settings: for activity at 10 µg/mL: Rattus norvegicus, 48 h, read-out: 45Ca released (% of control value)
Protocol: Thus, a Sprague-Dawley rat at day 19 of pregnancy was subcutaneously dosed with 50 μCi of ^45 Ca (a radioisotope of calcium, in CaCl2). On the next day, the animal was laparotomized and the fetuses were removed aseptically. The right and left humeri (radii and ulnae) of each rat fetus were dissected from the body under the dissection microscope. The connective tissue and cartilages were removed as far as possible to prepare bone culture specimens. Each piece of bone was incubated in 0.6 ml of BGJb medium Fitton-Jackson modification (the tradename owned by GIBCO Laboratories, U.S.A.) containing 2 mg/ml of bovine serum albumin at 37° C. for 24 hours. […] The radioactivities of ^45 Ca in the culture medium and bone were determined and the ratio (%) of ^45 Ca released from the bone to the medium was calculated according to the following formula. […] A=ratio (%) of ^45 Ca released from the bone to the medium B=^45 Ca count in the medium
C=^45 Ca count in the bone
The bones from the fetuses of the same litter were similarly incubated without addition of the test compound for two days and served as controls.
The values for 5 bones per group were expressed in mean. The ratio (%) of this value for the treatment group to the control value was determined.

[2] = system: oophorectomized Sprague-Dawley rats, right femur; assay: Treatment of osteoporosis in oophorectomized rats (femur bone density, dry weight, ashes); type: in vivo; settings: daily dose 100 mg/kg orally; for Ashes / Dry weight: 18 doses, distal 1/3 of right femur
Protocol: Study on Treatment of Osteoporosis
Oophorectomy was performed on Sprague-Dawley rats at 10 weeks of age and starting from the following day, the rats were orally dosed with the test compound 6 days a week for 3 weeks, or a total of 18 days. On the day following the last dosing, the right femur was removed from each rat and subjected to soft X-ray photography with a soft X-ray apparatus (Softex CSM, Softex). Using a microdensitometer (PDM-5, Konica Medical), the transverse section of the femur on the soft X-ray film was scanned at a point one-fifth from the distal end (metaphysis) and from the density wave pattern, bone density was calculated according to the microdensitometric method described by Inoue et al. [Journal of Japanese Orthopedic Association (J Jpn. Orthop. Ass.) 57, 1923 (1983)].
After soft X-ray photographing, the 1/3 distal part of the femur was sectioned off at right angles with the major axis. After the bone marrows were washed off with a rinse pump, the femur section was put into a porcelain crucible, placed in a oven and dried at 110° C. for 24 hours. The dry weight was then determined.
The porcelain crucible containing the bone was transferred to a muffle furnace (FP-41, Yamato Chemicl) and heated at 500° C. for 3 hours and at 800° C. for 2 hours for calcification of the bone and the ashes were weighed.
The mean ± standard errors of the measured values for the right femurs of 7 rats per group were determined.

[3] = system: mice; assay: Oral toxicity in mice; type: in vivo; settings: 300 mg/kg
From the text: The compound (I) and salt according to the present invention has excellent bone resorption inhibitory activity. Thus, they have the action to inhibit the dissolution and diminution of bone in the body. Furthermore, compound (I) and salts thereof have bone formation promoting activity.

[4] = final concentration 10 μg/ml, two additional days at 37° C., mean of 5 bones per group, lower = more inhibition
[5] = Table 4, oophorectomy control 76.3, sham 85.7
[6] = Table 4, oophorectomy control 114.2, sham 131.4

COc1ccc(NC(=O)C2SCC(=O)c3cc4c(cc32)CCCC4)cc1OC (stereo not drawn) [Example 28]
activity at 10 µg/mL [1, 4]: 79%

CCOP(=O)(Cc1ccc(NC(=O)C2SCC(=O)c3cc(C)ccc32)cc1)OCC (stereo not drawn) [Example 140]
activity at 10 µg/mL [1]: 61%

CCOP(=O)(Cc1ccc(NC(=O)[C@@H]2S[C@@H](C)C(=O)c3cc(C4CCCCC4)ccc32)cc1)OCC (relative stereo) [Example 23]
activity at 10 µg/mL [1]: 65%

CCOP(=O)(Cc1ccc(NC(=O)C2SCC(=O)c3c(C)ccc(C)c32)cc1)OCC (stereo not drawn) [Example 150]
activity at 10 µg/mL [1]: 71%

O=C1CSC(C(=O)Nc2cccnc2)c2ccc(C3CCCCC3)cc21 (stereo not drawn) [Example 10, 6-cyclohexyl-N-(3-pyridyl)-3,4-dihydro-1H-2-benzothiopyran-4-one-1-carboxamide]
activity at 10 µg/mL [1, 4]: 62%

CCOP(=O)(Cc1ccc(NC(=O)C2SCC(=O)c3cc4c(cc32)CCCC4)cc1)OCC (stereo not drawn) [Example 35]
activity at 10 µg/mL [1]: 58%

COP(=O)(OC)c1ccc(NC(=O)C2SCC(=O)c3cc4c(cc32)CCCC4)cc1 (stereo not drawn) [Example 31]
activity at 10 µg/mL [1]: 64%

O=C(Nc1ccc2c(c1)OCO2)C1SCC(O)c2ccc(C3CCCCC3)cc21 (stereo not drawn) [Example 59, 7-cyclohexyl-N-(3,4-methylenedioxyphenyl)-c-4-hydroxy-3,4-dihydro-1H-2-benzothiopyran-r-1-carboxamide]
45Ca released (% of control value) ([1]; final concentration 10 μg/ml, two additional days at 37° C., mean of 5 bones per group, lower = more inhibition, 2880 min): 64 % of control value

CCOP(=O)(OCC)c1ccc(NC(=O)C2SCC(=O)c3cc4c(cc32)CCCC4)cc1 (stereo not drawn) [Example 33]
activity at 10 µg/mL [1]: 53%

O=C1CSC(C(=O)Nc2ccc3c(c2)OCO3)c2ccc(C3CCCCC3)cc21 (stereo not drawn) [Example 19]
activity at 10 µg/mL [1, 4]: 70%

CCOP(=O)(OCC)c1ccc(NC(=O)C2SCC(=O)c3cc(C(C)(C)C)ccc32)cc1 (stereo not drawn) [Example 143]
activity at 10 µg/mL [1]: 44%

CCOP(=O)(Cc1cccc(NC(=O)C2SCC(=O)c3cc4c(cc32)CCCC4)c1)OCC (stereo not drawn) [Example 191]
activity at 10 µg/mL [1]: 58%

O=C1CSC(C(=O)Nc2ccc(Cl)cc2)c2ccc(C3CCCCC3)cc21 (stereo not drawn) [Example 21]
activity at 10 µg/mL [1, 4]: 73%

Cc1cc(C)c2c(c1)C(=O)CSC2C(=O)Nc1ccc(Cl)cc1 (stereo not drawn) [Example 153]
activity at 10 µg/mL [1, 4]: 63%

COc1ccc(CCN(C)C(=O)C2SCC(=O)c3cc(C4CCCCC4)ccc32)cc1OC (stereo not drawn) [Example 55]
activity at 10 µg/mL [1, 4]: 78%

CCOP(=O)(OCC)c1ccc(NC(=O)C2Cc3ccc(C4CCCCC4)cc3C(=O)CS2)cc1 (stereo not drawn) [Example 56, 7-cyclohexyl-N-(4-diethoxyphosphorylphenyl)-1,2,4,5-tetrahydro-3-benzothiepin-5-one-2-carboxamide]
activity at 10 µg/mL [1]: 76%

CCOP(=O)(Cc1ccc(NC(=O)C2SCC(=O)c3cc(C)c(C)cc32)cc1)OCC (stereo not drawn) [Example 163]
Ashes [2, 5]: 82.3 mg
Dry weight [2, 6]: 127.6 mg
activity at 10 µg/mL [1]: 50%

O=C1CSC(C(=O)Nc2ccc(Cl)cc2)c2cc3c(cc21)CCC3 (stereo not drawn) [Example 183]
activity at 10 µg/mL [1, 4]: 47%

CCOP(=O)(Cc1ccc(NC(=O)C2SCC(=O)c3cc(C4CCCCCC4)ccc32)cc1)OCC (stereo not drawn) [Example 138]
activity at 10 µg/mL [1]: 63%

CCOP(=O)(OCC)c1ccc(NC(=O)C2SCC(=O)c3cc4c(cc32)CCCCC4)cc1 (stereo not drawn) [Example 198]
activity at 10 µg/mL [1]: 62%

Cc1cc2c(cc1C)C(C(=O)Nc1ccc(Cl)c(Cl)c1)SCC2=O (stereo not drawn) [Example 155]
activity at 10 µg/mL [1, 4]: 80%

COc1ccc(-c2csc(NC(=O)C3SCC(=O)c4cc(C5CCCCC5)ccc43)n2)cc1OC (stereo not drawn) [Example 14]
activity at 10 µg/mL [1, 4]: 81%

CC(C)OP(=O)(Cc1ccc(NC(=O)C2SCC(=O)c3cc4c(cc32)CCCC4)cc1)OC(C)C (stereo not drawn) [Example 36]
activity at 10 µg/mL [1]: 73%

COP(=O)(OC)c1ccc(NC(=O)C2SCC(=O)c3cc(C)c(C)cc32)cc1 (stereo not drawn) [Example 160]
activity at 10 µg/mL [1]: 54%

O=C1CSC(C(=O)N2CCN(c3ccc(F)cc3)CC2)c2cc3c(cc21)CCCC3 (stereo not drawn) [Example 30]
activity at 10 µg/mL [1, 4]: 75%

O=C1CSC(C(=O)O)c2ccc(Cl)cc21 (stereo not drawn) [Example 1, 6-chloro-3,4-dihydro-1H-2-benzothiopyran-4-one-1-carboxylic acid]
activity at 10 µg/mL [1, 4]: 84%

CCOP(=O)(OCC)c1ccc(NC(=O)C2SCC(=O)c3cc(C)c(C)cc32)cc1 (stereo not drawn) [Example 161]
Ashes [2, 5]: 83.7 mg
Dry weight [2, 6]: 127.5 mg
activity at 10 µg/mL [1]: 50%

CCOP(=O)(Cc1ccc(NC(=O)C2SCC(=O)c3cc(C4CCCC4)ccc32)cc1)OCC (stereo not drawn) [Example 132]
activity at 10 µg/mL [1]: 57%

CCOP(=O)(NC(=O)C1SCC(=O)c2cc(C3CCCCC3)ccc21)OCC (stereo not drawn) [Example 201, 6-cyclohexyl-N-diethoxyphosphoryl-3,4-dihyiro-1H-2-benzothiopyran-4-one-1-carboxamide]
activity at 10 µg/mL [1]: 65%

O=C1CSC(C(=O)Nc2nccs2)c2ccc(C3CCCCC3)cc21 (stereo not drawn) [Example 12]
activity at 10 µg/mL [1, 4]: 84%

CCOP(=O)(Cc1ccc(NC(=O)C2SCC(=O)c3cc(C(C)(C)CC)ccc32)cc1)OCC (stereo not drawn) [Example 146]
Ashes ([2]; Table 3, oophorectomy control 74.3, sham 88.3): 84.1 mg
Dry weight ([2]; Table 3, oophorectomy control 112.3, sham 130.4): 128.2 mg
activity at 10 µg/mL [1]: 62%

CCOP(=O)(Cc1ccc(NC(=O)C2SCC(=O)c3cc(C4CCCCC4)ccc32)cc1)OCC (stereo not drawn) [Example 22]
Ashes ([2]; Table 2, oophorectomy control 74.3, sham 80.0): 82.4 mg
Dry weight ([2]; Table 2, oophorectomy control 107.7, sham 116.2): 120.0 mg
Bone density ([2]; Table 2, 6 days a week for 3 weeks, femur metaphysis, oophorectomy control 1.062, sham 1.304): 1.336
activity at 10 µg/mL [1]: 57%
death [3]: no death was encountered

CCOP(=O)(CCc1ccc(NC(=O)C2SCC(=O)c3cc(C(C)(C)C)ccc32)cc1)OCC (stereo not drawn) [Example 144]
activity at 10 µg/mL [1]: 52%

CCOP(=O)(OCC)c1ccc(NC(=O)C2SCC(=O)c3cc(C(C)C)ccc32)cc1 (stereo not drawn) [Example 141]
activity at 10 µg/mL [1]: 57%

O=C1CSC(C(=O)N2CCN(c3ccc(F)cc3)CC2)c2ccc(C3CCCCC3)cc21 (stereo not drawn) [Example 18]
death [3]: no death was encountered

CCCOP(=O)(OCCC)c1ccc(NC(=O)C2SCC(=O)c3cc4c(cc32)OCCO4)cc1 (stereo not drawn) [Example 50]
activity at 10 µg/mL [1]: 73%

Cc1cc2c(cc1C)C(C(=O)Nc1ccc(C)c(Cl)c1)SCC2=O (stereo not drawn) [Example 157]
activity at 10 µg/mL [1, 4]: 71%

CCOP(=O)(OCC)c1ccc(NC(=O)C2SCC(=O)c3cc(Cl)ccc32)cc1 (stereo not drawn) [Example 46]
activity at 10 µg/mL [1]: 76%
